Results from patent publication US6440972B1, “Heterocyclic compounds useful as oxido-squalene cyclase inhibitors” (Zeneca Limited, priority 1997, dated 2002).

Legend:
[1] = biological target: T1, microsomal oxido-squalene cyclase (Rattus norvegicus, UniProt P48450); assay: In vitro test to measure inhibition of oxido-squalene cyclase (rat liver microsomes); type: biochemical; conditions: concentration of 0.01 μM
T1 construct: Microsomes are prepared from rat liver according to methods known in the art; from tissue; host or cells: rat liver microsomes
T1 sequence (P48450 1-733): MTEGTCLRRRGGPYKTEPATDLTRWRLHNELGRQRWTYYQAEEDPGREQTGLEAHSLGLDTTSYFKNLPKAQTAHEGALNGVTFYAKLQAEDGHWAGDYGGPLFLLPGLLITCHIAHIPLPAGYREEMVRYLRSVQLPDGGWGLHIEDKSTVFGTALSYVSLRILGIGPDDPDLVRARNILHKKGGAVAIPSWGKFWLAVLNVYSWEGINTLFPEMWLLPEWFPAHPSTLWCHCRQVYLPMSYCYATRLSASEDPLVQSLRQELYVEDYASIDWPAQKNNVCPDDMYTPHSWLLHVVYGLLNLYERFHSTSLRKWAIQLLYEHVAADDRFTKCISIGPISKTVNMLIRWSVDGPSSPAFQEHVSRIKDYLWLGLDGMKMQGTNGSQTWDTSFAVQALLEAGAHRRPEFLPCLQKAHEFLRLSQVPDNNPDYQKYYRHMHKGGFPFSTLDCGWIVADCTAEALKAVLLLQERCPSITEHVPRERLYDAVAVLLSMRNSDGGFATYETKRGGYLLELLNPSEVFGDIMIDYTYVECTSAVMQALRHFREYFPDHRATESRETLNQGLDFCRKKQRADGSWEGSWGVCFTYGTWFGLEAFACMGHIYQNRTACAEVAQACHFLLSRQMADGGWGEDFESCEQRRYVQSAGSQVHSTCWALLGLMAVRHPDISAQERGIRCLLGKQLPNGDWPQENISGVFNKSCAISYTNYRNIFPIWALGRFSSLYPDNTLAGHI
Procedure: (a) In vitro Test to Measure Inhibition of Oxido-squalene Cyclase
This test measures the inhibition of microsomal oxido-squalene cyclase in vitro by compounds at set concentrations in the incubation medium.
Microsomes are prepared from rat liver according to methods known in the art, for example, the method described in published European Patent Application No 324,421 and stored in liquid nitrogen prior to assay. Assay vials are kept at 37° C. throughout the incubation. The microsomes typically contain 15-20 mg of protein per ml of microsomes. For the assay, 1 ml of microsomes are diluted by the addition of 722 μl of 50 mM phosphate buffer pH 7.4.
Phosphate buffered Tween® 80 (polyoxyethylene sorbitan […]) is prepared by adding 0.1 g Tween® 80 to 100 ml of 50 mM phosphate buffer.
A stock solution of oxido-squalene is made up as a solution in ethanol (0.65 mg.ml.^−1). 18 μl of radio-labelled oxido-squalene (1 μCi.ml^−1) is evaporated to dryness under a stream of nitrogen and redissolved in 1 ml of ethanol and 1 ml of the stock solution of oxido-squalene is added.
The test compound is dissolved in dimethyl sulphoxide to give a 10^−1M stock solution. […]
The samples are then placed in a water bath at 80° C. for 2 hours to saponify. […] Reaction rate is measured as the conversion of oxido-squalene to lanosterol, and the effects of test compounds are expressed as an inhibition of this process.

cholesterol biosynthesis = assay: In vivo test to measure inhibition of oxido-squalene cyclase / cholesterol biosynthesis in the rat; conditions: dosed at 2 mg.kg^−1, oral, rat liver
Procedure: (b) In vivo Test to Measure Inhibition of Oxido-squalene Cyclase
The ability of a compound to inhibit oxido-squalene cyclase and/or inhibit cholesterol biosynthesis may be assessed by a routine laboratory procedure carried out in the rat. The test involves administration of the compound to rats on a reversed lighting regimen. Female rats (35-55 g) are housed in reverse lighting conditions (red light from 0200 h-[…]) for a period of about 2 weeks prior to test. Animals are allowed free access to chow and drinking water throughout this period. At test, animals should weigh 100-140 g. The rats are dosed orally with the compound (typically 10-50 mg/kg) formulated in a polyethylene glycol/hydroxypropylmethyl cellulose mix. After 1 hour the rats are given triturated sodium mevalonate (15 μCi.kg^−1) intraperitoneally. Two hours after administration of the compound the rats are terminated and a piece of liver removed and weighed. The tissue is saponified at 80° C. for 2 hours in an ethanolic/potassium hydroxide solution (80% w/v aqueous KOH diluted 1:10 with ethanol). Water (2 ml) is added and the mixture extracted with iso-hexane (2×5 ml). The organic extracts are combined, evaporated to dryness under a stream of nitrogen and the residue is dissolved in a mixture of acetonitrile/iso-propanol (300 μl). […] The radio-label content of each fraction is assessed using a radio chemical flow detector. […]

melting point | Compound | inhibition of rat microsomal oxido-squalene cyclase [1] | inhibition of rat cholesterol biosynthesis (cholesterol biosynthesis)
192 °C | O=C(C1CCN(c2ccncc2F)CC1)N1CCN(S(=O)(=O)c2ccc(Br)cc2)CC1 |  | 
 | O=C(C1CCN(c2ccncc2Cl)CC1)N1CCN(S(=O)(=O)c2ccc(Br)cc2)CC1 [Example 1] | about 79% | about 79%
